# Measurements: patent US11324768B2, “Applications of triacetyl-3-hydroxyl phenyl adenosine in treating vascular inflammations or improving vascular endothelium functions” (priority 2016, dated 2022)
# Key:
# Type in all cases: in vivo
# Ob/Ob obese mice = experiment: Biochemical indexes in Ob/Ob obese mice; conditions: 400 mg/kg
# Description: After 1 week of adaptive feeding, animals were randomly divided into two groups according to body weight: model control group, and IMM-H007 group (400 mg/kg), 10 in each group, and were given normal feed and simultaneously administered intragastrically at a dose of 0.1 ml/10 g body weight, and were continuously administered and fed for 9 weeks. The changes of food intake and body weight were recorded, and routine biochemical indicators such as blood lipids and blood glucose, etc. were measured. After 9 weeks, 3 animals were taken from each group and the mesenteric arterioles were taken for measurement of vascular endothelial function in the same manner as in Example 2.
# Detection Indicators (1) Routine Biochemical Indicators and (2) Vascular Endothelial Function
# ApoE−/− mice [1] = experiment: Plaque area in ApoE−/− mice (oil red O staining of aorta and aortic root); conditions: for plaque area, Overall length of aorta: in % (unit assumed)
# Description: After 1 week of adaptive feeding, the animals were randomly divided into 7 groups according to body weight: normal control group, model control group A769662 (30 mg/kg) administration group, metformin (260 mg/kg) administration group, IMM-H007 low, medium, and high administration groups (50, 100, 200 mg/kg), 8 in each group, and were given a high-fat diet (78.6% basal diet, 10% lard, 1.0% cholesterol, 10% egg yolk powder, and 0.4% bile salt), and simultaneously administered intragastrically at a dose of 0.1 ml/10 g body weight, […] model.
# The aortic root was stained with oil red O and the overall length of the aorta was stained with oil red O. The pathological images were analyzed by Photoshop, Image 1, and Image-Pro Plus softwares. The pathological grading data were statistically analyzed using Chi-square test.
# AMPK-eNOS pathway = experiment: Mechanism of improving endothelial function (Western Blotting, total nitric oxide synthase activity in serum); conditions: ApoE−/− mice
# Description: (§1) After 1 week of adaptive feeding, the animals were randomly divided into 7 groups according to body weight: normal control group, model control group A769662 (30 mg/kg) administration group, metformin (260 mg/kg) administration group, IMM-H007 low, medium, and high administration groups (50, 100, 200 mg/kg), 8 in each group, and were given a high-fat diet (78.6% basal diet, 10% lard, 1.0% cholesterol, 10% egg yolk powder, and 0.4% bile salt), and simultaneously administered intragastrically at a dose of 0.1 ml/10 g body weight, and were continuously administered and fed for 8 weeks to establish an atherosclerosis model.
# The expression levels of AMPK, pAMPK, peNOS, eNOS, Caveolin-1 proteins were analyzed and measured by Western Blotting to determine the total nitric oxide synthase activity in serum.
# TNF-α = experiment: Serum inflammatory factor TNF-α in ApoE−/− mice (ELISA); parameters: unit not given here
# Description: After 1 week of adaptive feeding, the animals were randomly divided into 7 groups according to body weight: normal control group, model control group A769662 (30 mg/kg) administration group, metformin (260 mg/kg) administration group, IMM-H007 low, medium, and high administration groups (50, 100, 200 mg/kg), 8 in each group, and were given a high-fat diet (78.6% basal diet, 10% lard, 1.0% cholesterol, 10% egg yolk powder, and 0.4% bile salt), […] body weight, and were continuously administered and fed for 8 weeks to establish an atherosclerosis model.
# (2) Effect of IMM-H007 on Serum Inflammatory Factors TNF-α and VCAM-1 in ApoE−/− Mice
# (§2) Operated according to kit instructions
# ApoE−/− mice [2] = experiment: Blood lipid levels in high-fat-fed ApoE−/− mice; conditions: 200 mg/kg, 8 weeks, high-fat diet
# Description: as §1
# (1) Effect of IMM-H007 on Blood Lipid Levels in ApoE−/− Mice: Total Cholesterol (TC), Triglyceride (TG), Low-Density Lipoprotein Cholesterol (LDL), High-Density Lipoprotein Cholesterol (HDL), and Free Fatty Acid (FFA)
# as §2
structure (smiles),measurement,setting,value
"CC(=O)OCC1OC(n2cnc3c(Nc4cccc(O)c4)ncnc32)C(OC(C)=O)C1OC(C)=O (stereo not drawn) [IMM-H007, 2′,3,′ 5′-triacetyl-N^6(3-hydroxyphenyl)adenosine]",Fasting blood glucose,Ob/Ob obese mice; 4 week,6.69 ± 0.12 mmol/L
same,Fasting insulin,Ob/Ob obese mice; 4 week,1.60 ± 0.18 ng/mL
same,Free fatty acid,Ob/Ob obese mice; 4 week,1.06 ± 0.03 mEq/l
same,Ingestion,Ob/Ob obese mice; 4 week,5.48 ± 0.05 g/day
same,Low-density lipoprotein,Ob/Ob obese mice; 4 week,1.16 ± 0.04 mmol/L
same,Total cholesterol,Ob/Ob obese mice; 4 week,3.57 ± 0.07 mmol/L
same,Triglyceride,Ob/Ob obese mice; 4 week,0.69 ± 0.03 mmol/L
same,Body weight,Ob/Ob obese mice; 9 week,51.18 ± 0.67 g
same,Fasting blood glucose,Ob/Ob obese mice; 9 week,9.98 ± 0.51 mmol/L
same,Fasting insulin,Ob/Ob obese mice; 9 week,6.07 ± 0.48 ng/mL
same,Free fatty acid,Ob/Ob obese mice; 9 week,0.44 ± 0.07 mEq/l
same,Ingestion,Ob/Ob obese mice; 9 week,5.47 ± 0.08 g/day
same,Low-density lipoprotein,Ob/Ob obese mice; 9 week,1.70 ± 0.28 mmol/L
same,Total cholesterol,Ob/Ob obese mice; 9 week,4.13 ± 0.67 mmol/L
same,Triglyceride,Ob/Ob obese mice; 9 week,0.52 ± 0.09 mmol/L
same,"plaque area, Frozen section of root of aorta %",ApoE−/− mice [1]; 50 mg/kg,3.66 ± 2.65 %
same,"plaque area, Overall length of aorta",ApoE−/− mice [1]; 50 mg/kg,6.18 ± 3.57
same,"plaque area, Frozen section of root of aorta %",ApoE−/− mice [1]; 100 mg/kg,2.36 ± 0.43 %
same,"plaque area, Overall length of aorta",ApoE−/− mice [1]; 100 mg/kg,3.93 ± 2.40
same,"plaque area, Frozen section of root of aorta %",ApoE−/− mice [1]; 200 mg/kg,2.97 ± 0.92 %
same,"plaque area, Overall length of aorta",ApoE−/− mice [1]; 200 mg/kg,3.67 ± 1.69
same,"lipid accumulation at the plaque site, section staining of the root of aorta",ApoE−/− mice [1]; high-fat diet for 10 weeks,a decrease
same,plaque accumulation in the arch of aorta and overall length of aorta,ApoE−/− mice [1]; high-fat diet for 10 weeks,significantly reduce
same,NO production,AMPK-eNOS pathway,increases
same,AMPK-eNOS pathway,AMPK-eNOS pathway; Western Blotting,activation
same,activity of nitric oxide synthase,AMPK-eNOS pathway; serum,improves
same,serum TNF-α,TNF-α; 100 mg/kg,256.3 ± 46.4
same,serum TNF-α,TNF-α; 200 mg/kg,250.2 ± 27.8
same,High-density lipoprotein (HDL-C),ApoE−/− mice [2],1.64 ± 1.15
same,Triglyceride (TG),ApoE−/− mice [2],1.48 ± 0.34
